Results taken from patent US20230330107A1, “METHODS TO PREVENT HIGH-GRADE SEROUS OVARIAN CANCER AND BREAST CANCER BY ADMINISTERING ANTIPROGESTINS” (priority 2020, published 2023).
Where “and” joins values, the source holds several entries; their conditions need not be identical. Equal values may be shown once. Entries after “also recorded” stand apart in the source; their conditions may differ.

Legend:
ovariectomized DKO mice = assay type: in vivo
Excerpt: (§1) Generation of DKO and cPR-DKO mice. DKO mice (Dicer1^flox/flox Pten flox/flox Amhr2^cre/+) were generated. A mouse line carrying Pgr^flox/flox, a conditional progesterone receptor (PR) gene (cPR), was provided by Drs. John Lydon and Francesco DeMayo. Conditional PR (Pgr^flox/flox)) mice were crossed with DKO mice, generating cPR- DKO mice (Pgr^flox/floxDicer1^flox/flox Pten^flox/flox Amhr2^cre/+). These Dicer1-Pten double-knockout (DKO) mice developed metastatic HGSCs arising from the fallopian tube with 100% penetrance. […] All DKO mice die of widespread peritoneal metastases. Besides mirroring the clinical features of human HGSC, these mouse HGSCs closely resemble human HGSC with histopathological, molecular, and genomic similarities. Mouse use and experiments were approved by the Institutional Animal Care and Use Committee (IACUC) at Indiana University School of Medicine.
Mouse bilateral ovariectomy. To examine the effect of ovary on HGSC development in the fallopian tube, both ovaries were surgically excised with the fallopian tubes remaining intact in DKO mice. The surgery was performed at 5-6 weeks of age, when there is no sign of tumors in the fallopian tube. These ovary-deficient DKO mice were then monitored for tumor development. Another set of DKO mice without surgery served as controls. Prior to surgery, DKO mice were anesthetized using Avertin (2,2,2,-tribromoethano) (125-250 mg/kg) (Sigma-Aldrich, St. Louis, Missouri, USA). For analgesia, Carprofen (5-10 mg/kg) (TCI America, Portland, OR, USA) was used a one dose pre-operatively and every 12 hours thereafter for 24-48 hours post-operatively.
(§2) Hormone pellet implantation. To evaluate the effects of steroid hormones on HGSC development, upon ovariectomy at 5-6 weeks of age, DKO mice were implanted subcutaneously with a pellet of 17-β estradiol (E2) (0.72 mg/90 days/mouse), progesterone (P4) (25 mg/90 days/mouse), or combined E2 (0.72 mg) & P4 (25 mg). Also, for shorter periods of P4 exposure, ovariectomized DKO mice were treated with a P4 pellet of 2 mg (1 week) or 6 mg (3 weeks). Another set of ovariectomized DKO mice implanted with a placebo (a pellet without hormone) served as controls. […] For a control group, DKO mice received a placebo pellet for mifepristone. After anesthesia, a pellet was inserted subcutaneously (SQ) after a single skin incision (0.5-1.0 cm) on the back near ovary location. The skin incision was closed with either monofilament suture or wound clips. The pellets were purchased from Innovative Research of America (Sarasota, FL, USA).
(§3) Statistical analysis. Statistical analyses were performed using a GraphPad Prism software (Version 8, GraphPad Software, Inc.). P values less than 0.05 were considered statistically significant. Log-rank test was used to compare survival distributions between different experimental groups of mice; Student's t-test to compare hormone levels between placebo-treated ovariectomized DKO mice and progesterone (P4)-treated ovariectomized DKO mice at 1 week, 3 weeks, and 3 months; Student's t-test to compare hormone levels between ovariectomized DKO mice (Ovex) and each experimental group of DKO mice; and Fisher's exact test to analyze PR expression in benign and malignant ovarian tumors.
Progesterone induces HGSC with metastatic potential in ovary-deficient DKO mice. Ovary-deficient DKO mice were treated with steroid hormones. […] Tumor development and mouse survival were then monitored.

[1] = Measurement of serum hormone levels (ELISA) in ovariectomized DKO mice; assay type: in vivo, mouse; details: P4-treated ovariectomized DKO mice
Procedure: Measurement of hormone levels. Blood samples were collected in serum separation tubes (BD Microtainer® Tube; 365967; BD Biosciences, San Jose, CA, USA) from DKO mice or ovariectomized DKO mice with or without hormone treatment. Serum was isolated by centrifugating blood at 14,000 rpm for 5 minutes at room temperature. Measurements of serum progesterone (P4), 17-β estradiol (E2), testosterone (T), follicle-stimulating hormone (FSH), and luteinizing hormone (LH) levels were performed using ELISA (enzyme-linked immunoassay: P4, E2, and T) or RIA (radioimmunoassay: FSH and LH) at the Center for Research Ligand Assay and Analysis Core in Reproduction at the University of Virginia.

[2] = tested on: DKO mice (Dicer1-Pten double-knockout, HGSC model); assay: Mifepristone pellet in DKO mice with intact ovaries: HGSC development and survival; assay type: in vivo, mouse; details: for median survival: DKO mice, range in brackets
Excerpt: as §1, §2, §3
Progesterone generates its biological effects through the progesterone receptors (PR). Thus, to evaluate further whether progesterone signaling is critical to the development of HGSC with metastatic potential, DKO mice were treated with the PR antagonist mifepristone (RU486), an antiprogestin, that acts by binding to PR and inhibiting the transcription of its target genes. […] As expected, DKO mice treated with a placebo developed primary HGSC coupled with abundant peritoneal HGSC metastases (FIG. 1A-B). […] Histologically, the fallopian tubes from mifepristone-treated mice were composed of cystic and fibrous tissues as well as small segments of carcinoma cells in the stroma, accompanied by limited peritoneal metastasis (FIG. 1E-G).

[3] = mifepristone 3 mg/m for 3 months
[4] = mifepristone 16.7 mg/m for 6 months

Q: With `C[C@]12CC[C@@H]3c4ccc(O)cc4CC[C@H]3[C@@H]1CC[C@@H]2O` [E2, 17-β estradiol] as the compound, how does the “ovariectomized DKO mice with tumors or swelling in the uterus” value (ovariectomized DKO mice; female, DKO (Dicer1flox/flox Ptenflox/flox Amhr2cre/+), mouse, in vivo, 3 months) read?
A: Its value is 90.9%.

Q: And the “tumor phenotype in ovariectomized DKO mice (in words)” value (ovariectomized DKO mice; s.c. hormone pellet for 3 months)?
A: The value was “did not produce any tumors in the fallopian tube”.

Q: What does the source list for `CC(=O)[C@H]1CC[C@H]2[C@@H]3CCC4=CC(=O)CC[C@]4(C)[C@H]3CC[C@]12C` [P4, progesterone]?
A: hazard ratio (HR) of survival vs placebo-treated ovariectomized DKO mice (ovariectomized DKO mice; P4 25 mg pellet for 3 months): 3.01; ovariectomized DKO mice that developed predominantly HGSC in the fallopian tube with widespread peritoneal metastases and ascites (ovariectomized DKO mice; P4 25 mg pellet for 3 months, 32/32 mice): 100%; median survival (ovariectomized DKO mice; ovariectomized DKO mice, s.c. hormone pellet for 3 months (P4 25 mg; E2 0.72 mg), range in brackets): 6.5 months of age; serum progesterone levels (in words) [1]: elevated serum progesterone levels

Q: Which median survival ([2]; mifepristone 3 mg/m for 3 months, s.c. pellet from 5-6 weeks of age) does the source give for `CC#C[C@]1(O)CC[C@H]2[C@@H]3CCC4=CC(=O)CCC4=C3[C@@H](c3ccc(N(C)C)cc3)C[C@@]21C` [mifepristone, (8S,11R,13S,14S,17S)-11-[4-(dimethylamino)phenyl]-17-hydroxy-13-methyl-17-prop-1-ynyl-1,2,6,7,8,11,12,14,15,16-decahydrocyclopenta[a]phenanthren-3-one] here?
A: The median survival was 11.2 (5.9-21.3) months of age.

Q: What about the median survival ([2]; mifepristone 16.7 mg/m for 6 months, s.c. pellets) of the same compound?
A: Its median survival is 13.1 (6.6-24.3) months of age and 13.1 months of age.

Q: And the “DKO mice not inhibited by mifepristone (HGSC development and peritoneal metastasis)” value ([2]; high dose, 16.7 mg/m for 6 m, 2/21 mice)?
A: The value was 9.5%.

Q: And the “DKO mice that still developed fallopian tube HGSC and widespread peritoneal metastases” value ([2]; low-dose group, 3 mg/m, 7/21 mice)?
A: Its value is 33.3%.

Q: What about the “hazard ratio (HR) of survival vs placebo-treated DKO mice” value [2, 3] of the same compound?
A: The value was 0.40.

Q: What about the “lived longer than DKO mice with placebo” value [2, 3] of the same compound?
A: Its value is roughly 4 months.

Q: And the “effect on HGSC development and peritoneal metastasis (in words)” value ([2]; mifepristone 3 mg/m for 3 months vs placebo)?
A: Its value is “developed little peritoneal metastasis; also recorded: effectively suppressed HGSC development in the fallopian tube and peritoneal metastasis”.

Q: What about the “effect on HGSC development and peritoneal metastasis (in words)” value ([2]; mifepristone 16.7 mg/m for 6 m) of the same compound?
A: The value was “effectively suppressed HGSC development and peritoneal metastasis”.

Q: And the “hazard ratio (HR) of survival vs placebo-treated DKO mice” value [2, 4]?
A: Its value is 0.13.

Q: What about the “lived longer than placebo-treated DKO mice” value [2, 4] of the same compound?
A: The value was roughly 6 months.
